The target of experiment [1] is T1, rat NPC1L1 (Rattus norvegicus, UniProt Q6T3U3). As to the kind of experiment: Binding to membranes of HEK-293 cells expressing recombinant rat NPC1L1. More on the design: expressed in transfected cells; host or cells: HEK-293 cells (ATCC), transient, pCR3.1; membranes. The settings on record: 0.03% sodium taurocholate and 0.05% digitonin; 1.25 mg protein/ml, 100 nM 1. As to the method: Transient expression of NPC1L1. Plasmid pCR3.1 expressing rat NPC1L1 (Genbank AY437867) or human NPC1L1 (Genbank AY437865) were prepared using standard molecular biology protocols. HEK-293 cells (ATCC) were seeded at 10×10^6 cells per T-225 flask (Corning) in DMEM containing 10% fetal calf serum, 4.5 g/L D-glucose and L-glutamine, 18 hours prior to transfection. They were transiently transfected with 25 μg of DNA using Fugene transfection reagent (Roche Biochemical) at a ratio of 6:1 Fugene:DNA. Following transfection, the cells were incubated at 37° C. and 5% CO2 for 48 hours, and then harvested using PBS based cell dissociation buffer (Gibco), pelleted at 500×g, snap frozen on dry ice, and stored at −80° C.
Membrane preparation from HEK-293 cells. Membranes were prepared by resuspending the frozen cell pellets in ten volumes of 20 mM HEPES/Tris buffer at pH 7.40 containing 8% sucrose, and sonicating the suspensions with a probe sonicator on ice until most of the cells were lysed. To isolate the membranes, the sonicates were centrifuged at 1600×g for 10 min to remove cell debris, and then the supernatants were centrifuged at 125,000×g for 1 hour to recover the membranes. These membranes were resuspended in 20 mM HEPES/Tris buffer at pH 7.40 containing 160 mM NaCl and 5% glycerol, and stored at 10-20 mg/ml protein at −80° C.
(§1) Analog structures are defined in Table 12.

Experiment [2] addresses T2, rat brush border membrane vesicles (Rattus norvegicus, UniProt Q6T3U3).
T2 construct: from tissue; host or cells: rat (male Sprague-Dawley) small-intestinal mucosa, brush border membrane vesicles
As to the kind of experiment: Binding assay with rat brush border membrane vesicles.
Description: Glass fiber filters (GF/C) were obtained from Whatman.
Rate constants for binding and dissociation.
as §1

Experiment [3] deals with T3, rhesus brush border membrane vesicles (Macaca mulatta, UniProt A0MJA5).
T3 sequence (A0MJA5 1-1332): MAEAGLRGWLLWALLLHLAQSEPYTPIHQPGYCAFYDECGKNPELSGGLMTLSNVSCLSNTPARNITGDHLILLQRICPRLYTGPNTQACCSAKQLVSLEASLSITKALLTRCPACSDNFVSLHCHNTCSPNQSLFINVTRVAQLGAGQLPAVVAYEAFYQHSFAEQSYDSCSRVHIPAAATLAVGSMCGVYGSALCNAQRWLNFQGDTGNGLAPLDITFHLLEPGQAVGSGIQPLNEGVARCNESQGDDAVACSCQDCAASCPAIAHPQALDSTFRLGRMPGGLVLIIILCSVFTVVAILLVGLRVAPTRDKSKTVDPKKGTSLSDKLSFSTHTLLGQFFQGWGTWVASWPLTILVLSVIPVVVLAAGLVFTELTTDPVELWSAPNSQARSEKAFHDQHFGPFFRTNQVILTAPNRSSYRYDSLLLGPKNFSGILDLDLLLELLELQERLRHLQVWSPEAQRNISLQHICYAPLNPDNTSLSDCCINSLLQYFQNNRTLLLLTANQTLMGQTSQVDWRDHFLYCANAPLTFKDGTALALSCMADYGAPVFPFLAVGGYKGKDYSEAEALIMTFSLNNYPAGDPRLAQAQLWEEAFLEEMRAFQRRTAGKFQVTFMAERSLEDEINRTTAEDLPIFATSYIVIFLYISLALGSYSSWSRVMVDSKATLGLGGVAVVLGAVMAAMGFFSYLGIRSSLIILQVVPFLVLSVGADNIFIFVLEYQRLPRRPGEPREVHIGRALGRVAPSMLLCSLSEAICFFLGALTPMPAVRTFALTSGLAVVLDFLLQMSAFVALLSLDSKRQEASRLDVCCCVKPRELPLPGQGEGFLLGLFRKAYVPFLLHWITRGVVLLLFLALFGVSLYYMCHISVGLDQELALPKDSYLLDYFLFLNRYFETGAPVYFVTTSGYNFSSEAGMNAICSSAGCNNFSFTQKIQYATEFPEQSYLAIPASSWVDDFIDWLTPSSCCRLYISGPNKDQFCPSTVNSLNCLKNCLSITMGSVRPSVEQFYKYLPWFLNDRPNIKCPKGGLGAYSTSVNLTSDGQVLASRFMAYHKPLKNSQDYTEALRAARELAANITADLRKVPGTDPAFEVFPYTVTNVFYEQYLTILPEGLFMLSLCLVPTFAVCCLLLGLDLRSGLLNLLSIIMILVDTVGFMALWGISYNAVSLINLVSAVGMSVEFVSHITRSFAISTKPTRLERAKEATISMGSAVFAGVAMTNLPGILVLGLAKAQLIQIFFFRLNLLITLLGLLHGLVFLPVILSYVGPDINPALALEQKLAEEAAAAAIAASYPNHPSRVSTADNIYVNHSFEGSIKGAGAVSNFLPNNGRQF
Put plainly: Binding assay with rhesus brush border membrane vesicles.
Description: The intestines from freshly sacrificed animals were cut into segments, perfused with ice-cold saline buffer (Buffer A: 26 mM NaHCO3, 0.96 mM NaH2PO4, 5 mM HEPES, 5.5 mM glucose, 117 mM NaCl, 5.4 mM KCl, pH=7.4), placed on cold glass plates, opened longitudinally, and the mucosa scraped with glass microscope slips. This mucosa could be used fresh or frozen with identical results. To prepare the membranes, the mucosal scrapings were resuspended in 20 volumes of cold buffer consisting of 300 mM D-mannitol, 5 mM EGTA, 12 mM Tris, pH 7.4 with HCl, and containing 0.1 mM PMSF and a 1% dilution of a protease inhibitor cocktail (set 1, Calbiochem). They were homogenized using a Polytron at medium speed on ice until inspection with a microscope indicated complete cell lysis. Then, solid MgCl2 was added slowly with stirring to a final concentration of 10 mM, and the solution was kept stirring on ice for 15 min. Cellular debris was removed by centrifugation for 15 min at 3,000 g, and the membranes were recovered by centrifugation for 60 min at 48,000 g. The membranes were further rinsed by re-suspension in a buffer containing 50 mM D-mannitol, 5 mM EGTA, and 2 mM Tris at pH 7.40, and centrifugation for 60 min at 48,000 g. The final pellet was resuspended in 120 mM NaCl and 20 mM Tris at pH 7.40 to a concentration of ˜10-20 mg protein/ml, aliquoted, frozen in liquid nitrogen, and stored at −80 C. The activity was stable indefinitely and could be freeze-thawed with minimal loss of activity.
Binding assay. Assays were conducted in 12×75 mm glass test tubes and total volume 20-100 ul. In general, frozen membranes were diluted in buffer A or buffer A containing 0.03% taurocholate and 0.05% digitonin to a final concentration of 0.02 to 5 mg/ml. […] Competing ligands were likewise added as DMSO solutions to give a total 2-10% organic solvent content. […] At least 2 components of buffer A, the bicarbonate and phosphate salts, were later found to be inconsequential and were routinely omitted.
Bound ligand was quantified by single-tube vacuum filtration using GF/C glass fiber filters. […] Filtration was accomplished by adding 2.5 ml of ice cold buffer (120 mM NaCl, 0.1% sodium cholate, and 20 mM MES at pH 6.70) to the assay tube, pouring the mixture through the filter, and then rinsing the tube and filter twice more with another 2×2.5 ml buffer. The filters were counted in 7 ml vials using Packard DM liquid scintillation fluid.
Data analysis. Data from saturation experiments were subjected to a Scatchard analysis, and linear regression was performed to yield the equilibrium dissociation constant (Kd) and maximum receptor concentration (Bmax). […] Data from competition experiments were analyzed and IC50 values determined from Hill plots of the binding data.

For experiment [4], the target named is T1, rat NPC1L1. Put plainly: ^35S-2 competition binding, rat NPC1L1 transfected CHO cells. More on the design: expressed in transfected cells; pCDNA3). The settings on record: 5 nM ^35S-2, 2 hours at 37° C.; read-out: Recombinant rat NPC1L1 Ki. As to the method:
Rat NPC1L1 transfected CHO cells (˜500,000 cells/assay) were incubated with 5 nM ^35S-2 (˜1 million dpm/assay) for 2 hours at 37° C. in the absence or presence of increasing concentrations of EZE-glucuronide (compound 1), compounds 2, 3, 5, 6, or 8. Compound 8 is an analog of compound 2 wherein the hydroxyl group in the 3-hydroxylpropyl moiety of 2 is replaced with an oxo group.

The mark [5] stands for this setting: 0.03% sodium taurocholate and 0.05% digitonin, 1.25 mg protein/ml, 100 nM 1, read-out: Rat BBM Ki.
Where [6] appears, read: rat brush border membrane vesicles, read-out: RAT IC50 (nM), inhibition of ^3H-EZE-gluc binding.
[7] abbreviates: Monkey BBM Ki (nM), 0.03% sodium taurocholate and 0.05% digitonin, 1.25 mg protein/ml, 20 nM 1.
Setting [8] is: 50 nM ^3H-EZE-glucuronide, 150 μg protein/assay, read-out: inhibition constant Ki, Rat.
The mark [9] stands for this setting: native rat intestinal brush border membranes, read-out: Rat BBMV Ki.

Each structure is given as a SMILES string. Several values for one entry are separate records, joined by “and”; a condition that tells them apart may be missing. Identical values can stand only once. Like-named read-outs stand apart in the source and are kept apart here. A value given as a limit tells only on which side of the number the result lay.

Take `O=C(O)C1OC(Oc2ccc(C3C(CCC(O)c4ccc(F)cc4)C(=O)N3c3ccc(F)cc3)cc2)C(O)C(O)C1O` (single isomer, unassigned) [Compound 4]: the Ki is 74000 nM on rat NPC1L1 [1], 130000 nM in experiment [2] (setting [5]) and 22000 nM in experiment [3] (setting [7]). In experiment [2] (in all species, Ki>100×KD for ezetimibe glucuronide), the activity in vitro result is “completely inactive”. In experiment [2] (setting [6]), the IC50 was greater than 100000 nM. Moreover, in experiment [2] (rat membrane binding assay, read-out: Kd for the rat target), the Kd is greater than 100000 nM.

For the compound `O=C(O)[C@H]1O[C@@H](Oc2ccc([C@@H]3[C@@H](CC[C@H](O)c4ccc(F)cc4)C(=O)N3c3ccc(F)cc3)cc2)[C@H](O)[C@@H](O)[C@@H]1O` [Compound 1, Ezetimibe glucuronide], the Ki at rat NPC1L1 [1] is 210 nM; at rat NPC1L1 [4], 790 nM; in experiment [2] (setting [8]), 530 nM; in experiment [2] (setting [5]) it was 390 nM; in experiment [2] (setting [9]) it was 600 nM; in experiment [3] (setting [7]), 15 nM. In experiment [2] (25 nM 1, rat membranes, 25° C.), the “rate constant for association kon” value is listed as 5,540 M^−1 s^−1. Besides, the kobs in experiment [2] (25 nM of 1 and 3 mg/ml protein at 25° C.) amounted to 0.004 s⁻¹. The Kd was 600 nM in experiment [2] (1.5 mg/ml protein, 50 nM 1, 1 hour, read-out: KD at equilibrium by competition of unlabeled compound against 1); 542 nM and 540 nM in experiment [2] (^3H-ezetimibe glucuronide, rat membranes, no detergent, read-out: KD (equilibrium saturation binding, Scatchard)); 440 nM in experiment [2] (rat membranes, read-out: Kd predicted from rate constants (Kd=koff/kon)); 38.6 nM in experiment [3] (KD at equilibrium by competition of unlabeled compound against 1, 0.5-1.25 mg/ml protein, 22-50 nM 1, more than 3 hours); 41 nM in experiment [3] (Kd (equilibrium saturation binding, Scatchard), ^3H-ezetimibe glucuronide, rhesus membranes, no detergent); 32 nM in experiment [3] (Kd predicted from rate constants (Kd=koff/kon), rhesus membranes). Moreover, in experiment [2] (^3H-EZE-glucuronide, rat BBMV), the Bmax was 20.7 pmol/mg protein. In addition, the IC50 in experiment [2] (setting [6]) stood at 530 nM; in experiment [2] (rat, read-out: in vitro binding affinity (IC50)), 542 nM; in experiment [3] it was 41 nM. The “rate constant for dissociation koff” value in experiment [2] (rat membranes, dissociation initiated with 100 μM unlabeled ezetimibe glucuronide) amounted to 0.0024 s⁻¹; in experiment [3] (rhesus membranes, listed as [^3H]ezetimibe glucuronide), 0.00012 s⁻¹. For the same compound, the residence time in experiment [2] (read-out: half-life of dissociation) was 4.7 min; in experiment [3] (read-out: half-life for dissociation of the complex, rhesus/monkey complex) it was roughly 90 min. The kon came out at 5500 M⁻¹ s⁻¹ in experiment [2] (read-out: rate constant for association kon, 25 nM 1, rat membranes, 25° C.); 5540 M⁻¹ s⁻¹ in experiment [2] (read-out: rate constant for association kon, rat brush border membranes); 3900 M⁻¹ s⁻¹ in experiment [3] (read-out: rate constant for association kon). Moreover, the koff worked out at 0.0024 s⁻¹ in experiment [2] (read-out: rate constant for dissociation koff) and 0.000123 s⁻¹ in experiment [3] (read-out: rate constant for dissociation koff, rhesus membranes). The “concentration of binding site” value in experiment [3] (rhesus membranes) worked out at 5.5 pmol/mg membrane protein.

For `CS(=O)(=O)NCC#Cc1ccc(N2C(=O)[C@H](CC[C@H](O)c3ccc(F)cc3)[C@H]2c2ccc(O[C@@H]3O[C@H](C(=O)O)[C@@H](O)[C@H](O)[C@H]3O)cc2)cc1` [Compound 2, 4-[(2S,3R)-3-[(3S)-3 (4-fluorophenyl)-3-hydroxypropyl]-1-(4-{3-[(methylsulfonyl)amino]prop-1-yn-1-yl}phenyl)-4-oxoazetidin-2-yl]phenyl β-D-glucopyranosiduronic acid], the Ki at rat NPC1L1 [4] turned out to be 12 nM; in experiment [2] (setting [8]), 15 nM; in experiment [2] (setting [9]), 15 nM. Also, the “potency relative to ezetimibe glucuronide” value was 35 fold in experiment [2] (rat enterocyte brush border membrane preparations) and “equipotent” in experiment [3] (rhesus membrane preparations).

`O=C(O)[C@H]1O[C@@H](Oc2ccc([C@@H]3[C@@H](CCCc4ccc(F)cc4)C(=O)N3c3ccc(F)cc3)cc2)[C@H](O)[C@@H](O)[C@@H]1O` [Compound 3]: the Ki is 820 nM at rat NPC1L1 [1]; 2400 nM on rat NPC1L1 [4]; 1600 nM in experiment [2] (setting [5]); 2300 nM in experiment [2] (setting [9]); 150 nM in experiment [3]. In addition, the IC50 in experiment [2] (setting [6]) stood at 2300 nM.

For `O=C(O)[C@H]1O[C@@H](Oc2ccc([C@@H]3[C@@H](CC[C@@H](O)c4ccc(F)cc4)C(=O)N3c3ccc(F)cc3)cc2)[C@H](O)[C@@H](O)[C@@H]1O` [Compound 5], the Ki on rat NPC1L1 [1] worked out at 1700 nM; on rat NPC1L1 [4], 5800 nM; in experiment [2] (setting [5]), 2800 nM; in experiment [2] (setting [9]) it was 3900 nM; in experiment [3] (setting [7]) it was 120 nM. Moreover, the IC50 in experiment [2] (setting [6]) turned out to be 3900 nM.

Take `O=C(CC[C@H]1C(=O)N(c2ccc(F)cc2)[C@@H]1c1ccc(O[C@@H]2O[C@H](C(=O)O)[C@@H](O)[C@H](O)[C@H]2O)cc1)c1ccc(F)cc1` [Compound 6]: the Ki on rat NPC1L1 [1] was 23000 nM; on rat NPC1L1 [4] it was 84500 nM; in experiment [2] (setting [5]), 33000 nM; in experiment [2] (setting [9]), 70000 nM; in experiment [3], 3300 nM. Further, in experiment [2] (setting [6]), the IC50 turned out to be 70000 nM.

`O=C1[C@H](CC[C@H](O)c2ccc(F)cc2)[C@@H](c2ccc(O)cc2)N1c1ccc(F)cc1` [ezetimibe]: the Kd came to 542 nM in experiment [2] (Table 11, rat, absence of detergents, read-out: KD) and 41 nM in experiment [3] (KD (nM), Table 11, monkey, absence of detergents).
